According to ChEMBL document CHEMBL1799975 (J Med Chem, 2011):

Experiments:
[1] = Lipophilicity, log D of the compound at pH 7.4 by HPLC analysis; type: physicochemical; details: buffer
[2] = Volume of distribution at steady state in rat at 0.1 mg/kg, iv by LC-MS-MS analysis; type: ADME, organism-based; set-up: dose 0.1 mg/kg, route intravenous; details: in vivo, read-out: Vdss
[3] = Cmax in rat at 0.1 mg/kg, iv by LC-MS-MS analysis; type: ADME, organism-based; set-up: dose 0.1 mg/kg, route intravenous; details: in vivo
[4] = AUC in rat at 0.1 mg/kg, po by LC-MS-MS analysis; type: ADME, organism-based; set-up: dose 0.1 mg/kg, route oral; details: plasma
[5] = Mean residence time in rat at 0.1 mg/kg, po by LC-MS-MS analysis; type: ADME, organism-based; set-up: dose 0.1 mg/kg, route oral; details: in vivo
[6] = Oral bioavailability in rat at 0.1 mg/kg by LC-MS-MS analysis; type: ADME, organism-based; details: in vivo
[7] = Drug level in rat plasma at 0.2 mg/kg, iv after 15 mins by LC-MS-MS analysis; type: ADME, organism-based; set-up: dose 0.2 mg/kg, route intravenous
[8] = Drug level in rat plasma at 0.2 mg/kg, iv after 30 mins by LC-MS-MS analysis; type: ADME, organism-based; set-up: dose 0.2 mg/kg, route intravenous
[9] = Drug level in rat brain at 0.2 mg/kg, iv after 15 mins by LC-MS-MS analysis; type: ADME, organism-based; set-up: dose 0.2 mg/kg, route intravenous; details: read-out: Drug uptake
[10] = Drug level in rat brain at 0.2 mg/kg, iv after 30 mins by LC-MS-MS analysis; type: ADME, organism-based; set-up: dose 0.2 mg/kg, route intravenous; details: read-out: Drug uptake
[11] = Ratio of drug level in brain to plasma of rat at 0.2 mg/kg, iv after 15 mins by LC-MS-MS analysis; type: ADME, organism-based; set-up: dose 0.2 mg/kg, route intravenous; details: read-out: BPR
[12] = Ratio of drug level in brain to plasma of rat at 0.2 mg/kg, iv after 30 mins by LC-MS-MS analysis; type: ADME, organism-based; set-up: dose 0.2 mg/kg, route intravenous; details: read-out: BPR

Question: For `CC(=O)NCCn1c(-c2ccccc2)nc2ccc3c(c21)CCO3`, which logD [1] is on record?
Answer: 1.39

Question: Which logD [1] does the source give for `CC(=O)NCCc1c(C)nn2ccc3c(c12)CCO3` here?
Answer: 1.04

Question: Which logD [1] does the source give for `CCC(=O)NCCc1c(C(F)(F)F)nn2ccc3c(c12)CCO3` here?
Answer: 1.94

Question: With `CC(=O)NCCc1c(C(F)(F)F)nn2ccc3c(c12)CCO3` as the compound, how does the logD [1] read?
Answer: 1.64

Question: With `CCC(=O)NCCc1c(C)nn2ccc3c(c12)CCO3` as the compound, how does the logD [1] read?
Answer: 1.39

Question: With `CCc1nn2ccc3c(c2c1CCNC(C)=O)CCO3` as the compound, how does the logD [1] read?
Answer: 1.48

Question: And the Vd [2]?
Answer: 0.664 L/kg

Question: What about the Cmax [3] of the same compound?
Answer: 12.4 ng/mL

Question: And the AUC [4]?
Answer: 14.4 ng·h/mL

Question: What about the MRT [5] of the same compound?
Answer: 57 min

Question: What about the bioavailability [6] of the same compound?
Answer: 19.7%

Question: And the concentration at […] [7]?
Answer: 83.2 ng/mL

Question: And the concentration at 0.5 h [8]?
Answer: 55.9 ng/mL

Question: And the concentration at […] [9]?
Answer: 23.7 ng/g

Question: What about the concentration at 0.5 h [10] of the same compound?
Answer: 12.4 ng/g

Question: What about the Kp at […] [11] of the same compound?
Answer: 0.28

Question: What about the Kp at 0.5 h [12] of the same compound?
Answer: 0.22

Question: With `CC(=O)NCCC1=C(c2ccccc2)Cc2ccc3c(c21)CCO3` as the compound, how does the logD [1] read?
Answer: 3.49

Question: With `CCC(=O)NCCc1c(C2CC2)nn2ccc3c(c12)CCO3` as the compound, how does the logD [1] read?
Answer: 1.89

Question: With `COc1ccc2[nH]cc(CCNC(C)=O)c2c1` [MELATONIN] as the compound, how does the logD [1] read?
Answer: 0.5

Question: With `CCC(=O)NCCc1c(CC)nn2ccc3c(c12)CCO3` as the compound, how does the logD [1] read?
Answer: 1.71

Question: Which logD [1] does the source give for `CC(=O)NCCc1c(C2CC2)nn2ccc3c(c12)CCO3` here?
Answer: 1.61

Question: With `CC(=O)NCCc1c(-c2ccccc2)nn2ccc3c(c12)CCO3` as the compound, how does the logD [1] read?
Answer: 2.04

Question: For `CC(=O)NCCc1c(-c2ccccc2)nc2ccc3c(n12)CCO3`, which logD [1] is on record?
Answer: 1.66
